Measured values reported in ChEMBL document CHEMBL5518207, “Structure Guided Discovery of Novel Pan Metallo-β-Lactamase Inhibitors with Improved Gram-Negative Bacterial Cell Penetration” (J Med Chem, 2024).

Experiments:
[1] = Inhibition of GST tagged NDM-1 (unknown origin) expressed in Escherichia coli BL21 Star (DE3) competent cells using CCF2-FA as substrate incubated for 2 hrs by fluorescence based analysis
[2] = Inhibition of GST tagged IMP-1 (unknown origin) expressed in Escherichia coli BL21 Star (DE3) competent cells using CCF2-FA as substrate incubated for 2 hrs by fluorescence based analysis
[3] = Inhibition of GST tagged VIM-1 (unknown origin) expressed in Escherichia coli BL21 Star (DE3) competent cells using CCF2-FA as substrate incubated for 2 hrs by fluorescence based analysis
Escherichia coli = experiment: Potentiation of imipenem induced antibacterial activity against Escherichia coli CLB30005 harbouring NDM-1 incubated for 18 to 22 hrs in presence of imipenem by spectrophotometer based analysis; format: functional; conditions: time 18-22 hrs
Serratia marcescens = experiment: Potentiation of imipenem induced antibacterial activity against Serratia marcescens CL5741 harbouring IMP-1 incubated for 18 to 22 hrs imipenem by spectrophotometer based analysis; format: functional; conditions: time 18-22 hrs
Klebsiella pneumoniae = experiment: Potentiation of imipenem induced antibacterial activity against Klebsiella pneumoniae IHMA599644 harbouring VIM-1 incubated for 18 to 22 hrs imipenem by spectrophotometer based analysis; format: functional; conditions: time 18-22 hrs
Pseudomonas aeruginosa [4] = experiment: Potentiation of imipenem induced antibacterial activity against isogenic efflux wild type Pseudomonas aeruginosa MB9798 harbouring IMP incubated for 18 to 22 hrs imipenem and beta lactamase inhibitor by spectrophotometer based analysis; format: functional; conditions: time 18-22 hrs
Pseudomonas aeruginosa [5] = experiment: Potentiation of imipenem induced antibacterial activity against isogenic efflux deleted mutant Pseudomonas aeruginosa MB9799 harbouring IMP incubated for 18 to 22 hrs imipenem and beta lactamase inhibitor by spectrophotometer based analysis; format: functional; conditions: time 18-22 hrs
Pseudomonas aeruginosa [6] = experiment: Efflux ratio of MITC95 for potentiation of imipenem induced antibacterial activity against isogenic efflux wild type Pseudomonas aeruginosa MB9798 harbouring IMP to MITC95 for potentiation of imipenem induced antibacterial activity against isogenic efflux deleted mutant Pseudomonas aeruginosa MB9799 harbouring IMP; format: functional
[7] = Inhibition of GST tagged VIM-2 (unknown origin) expressed in Escherichia coli BL21 Star (DE3) competent cells using CCF2-FA as substrate incubated for 2 hrs by fluorescence based analysis

SMILES | IC50 [1] | IC50 [2] | IC50 [3] | MITC95 (Escherichia coli) | MITC95 (Serratia marcescens) | MITC95 (Klebsiella pneumoniae) | MITC95 (Pseudomonas aeruginosa [4]) | MITC95 (Pseudomonas aeruginosa [5]) | Ratio (Pseudomonas aeruginosa [6]) | IC50 [7]
Cc1ccc(-c2cccc(S(N)(=O)=O)c2-c2nnn[nH]2)cc1 | 3.7 nM | 64 nM | 57 nM | 1.5 µM | 14 µM | 127 µM |  |  |  | 
Nc1ccc(-c2ccc(C(F)(F)F)c(S(N)(=O)=O)c2-c2nn[nH]n2)cn1 | 2.7 nM | 6.9 nM | 1.3 nM | 0.2 µM | 0.4 µM | 4.8 µM | 200 µM | 1.56 µM | 128 | 3.1 nM
N=C(N)NCc1ccc(-c2ccc(C(F)(F)F)c(S(N)(=O)=O)c2-c2nn[nH]n2)cc1 | 3.9 nM | 3.4 nM | 0.4 nM | 0.3 µM | 0.06 µM | 0.8 µM | 35.4 µM | 0.39 µM | 90 | 
Nc1ccc2cccc(-c3ccc(C(F)(F)F)c(S(N)(=O)=O)c3-c3nn[nH]n3)c2n1 | 0.1 nM | 0.8 nM | 0.4 nM | 1.6 µM | 3.1 µM | 3.1 µM | 12.5 µM | 0.78 µM | 16 | 
Nc1nc2c(-c3ccc(CC4CCNCC4)c(S(N)(=O)=O)c3-c3nn[nH]n3)cccc2s1 | 0.7 nM | 19 nM | 2.2 nM | 0.8 µM | 3.1 µM | 1.6 µM | 18 µM | 1.6 µM | 11 | 2.1 nM
NS(=O)(=O)c1c(Br)ccc(-c2ccc(C3CCNCC3)cc2)c1-c1nn[nH]n1 | 11 nM | 10 nM | 3 nM | 0.4 µM | 0.2 µM | 1.6 µM |  |  |  | 
Nc1nc2c(-c3ccc(C(F)(F)F)c(S(N)(=O)=O)c3-c3nn[nH]n3)cccc2s1 | 0.2 nM | 1 nM | 0.4 nM | 3.1 µM | 1.6 µM | 3.1 µM | 6.3 µM | 0.78 µM | 8 | 0.1 nM
Cc1ccc(-c2ccc(C3CCNCC3)cc2)c(-c2nn[nH]n2)c1S(N)(=O)=O | 31 nM | 72 nM | 28 nM | 3 µM | 6 µM | 25 µM |  |  |  | 
NC1CCC(N2CCC(c3ccc(-c4ccc(C(F)(F)F)c(S(N)(=O)=O)c4-c4nn[nH]n4)cc3)CC2)CC1 (centres undefined) | 6.4 nM | 1.8 nM | 11 nM | 1.6 µM | 3.1 µM | 50 µM | 3.1 µM | 0.78 µM | 4 | 
NC1(c2ccc(-c3ccc(C(F)(F)F)c(S(N)(=O)=O)c3-c3nn[nH]n3)cc2)CCNCC1 | 9.3 nM | 12.8 nM | 3 nM | 0.4 µM | 0.3 µM | 0.9 µM | 25 µM | 0.39 µM | 64 | 
